Where two headings read alike, the source gives them in different places.
Key:
KKAy mice = experiment: Blood glucose and blood lipid (triglyceride) lowering action in mice; assay type: in vivo; conditions: Mus musculus, 4TO7, po, 0.01% in powder diet, 4 to 7 days
Summary of the method: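 KKAy mice (9 to 14-week-old, 5 per group) fed compound in powder diet at 0.01% (some at 0.03% or 0.005%) ad libitum for 4 to 7 days. Orbital plexus blood drawn; plasma glucose and triglyceride quantitated by enzyme method.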

PPARγ-RXRα heterodimer = molecular target: T1, PPARγ-RXRα heterodimer (Homo sapiens, UniProt P37231); experiment: PPARγ-RXRα heterodimer ligand activity (luciferase reporter, PPARγ:RXRα:4ERPP/CHO-K1 cells); assay type: cell-based; conditions: concentration showing 50% of the maximum luciferase induction rate; CHO-K1 reporter cells, one day incubation
T1 construct: expressed in transfected cells; host or cells: CHO-K1 (PPARγ:RXRα:4ERPP/CHO-K1)
T1 sequence (P37231 1-477 isoform P37231-2): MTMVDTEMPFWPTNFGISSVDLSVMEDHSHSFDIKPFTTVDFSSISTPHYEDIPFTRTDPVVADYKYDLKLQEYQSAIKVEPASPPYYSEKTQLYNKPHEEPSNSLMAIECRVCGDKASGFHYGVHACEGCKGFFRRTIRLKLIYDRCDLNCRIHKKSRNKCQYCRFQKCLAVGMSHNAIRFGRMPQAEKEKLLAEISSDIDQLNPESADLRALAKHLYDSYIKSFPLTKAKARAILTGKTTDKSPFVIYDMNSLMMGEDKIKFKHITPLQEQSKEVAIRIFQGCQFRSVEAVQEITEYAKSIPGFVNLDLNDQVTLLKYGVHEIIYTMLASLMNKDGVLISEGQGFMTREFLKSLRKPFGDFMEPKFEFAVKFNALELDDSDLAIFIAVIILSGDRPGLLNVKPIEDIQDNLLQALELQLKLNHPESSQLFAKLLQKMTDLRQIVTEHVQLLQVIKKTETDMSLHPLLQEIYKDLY
T1 sequence (P19793 1-462 partner): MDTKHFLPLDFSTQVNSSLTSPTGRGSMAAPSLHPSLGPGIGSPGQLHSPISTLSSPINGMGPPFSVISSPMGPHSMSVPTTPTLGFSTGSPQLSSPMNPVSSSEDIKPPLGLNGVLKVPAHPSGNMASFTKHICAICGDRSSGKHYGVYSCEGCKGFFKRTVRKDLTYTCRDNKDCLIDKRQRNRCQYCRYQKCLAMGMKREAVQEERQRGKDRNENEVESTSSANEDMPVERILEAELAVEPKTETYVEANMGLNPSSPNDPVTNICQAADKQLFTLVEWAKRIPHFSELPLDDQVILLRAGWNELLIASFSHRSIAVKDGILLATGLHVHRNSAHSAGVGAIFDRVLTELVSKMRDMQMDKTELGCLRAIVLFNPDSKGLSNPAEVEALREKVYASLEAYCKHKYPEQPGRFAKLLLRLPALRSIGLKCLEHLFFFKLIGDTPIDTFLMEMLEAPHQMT
Summary of the method: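 CHO-K1 cells expressing PPARγ:RXRα with a 4ERPP reporter were exposed to compound for one day at 37° C in Ham F12 containing 0.1% fatty acid-free BSA, then read for luciferase. Induction rate was taken relative to untreated cells as 1, and EC50 is the concentration giving 50% of maximal induction.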

[1] = plasma glucose relative to non-administration group = 100%, read-out: hypoglycemic action (%)
[2] = plasma triglyceride relative to non-administration group = 100%, read-out: hypolipidemic action (%)

SMILES | melting point [°C] | EC50 (PPARγ-RXRα heterodimer) [nM] | response vs control in vivo at 0.01 % (KKAy mice; [1]) [%] | response vs control in vivo at 0.01 % (KKAy mice; [2]) [%]
COCCOc1ccc(CCCOC(=O)NS(=O)(=O)NC2CCC(C)CC2)c(Oc2ncc(C(F)(F)F)cc2Cl)c1 (stereo not shown) [Example 205, 3-[2-{[3-chloro-5-(trifluoromethyl)pyridin-2-yl]oxy}-4-(2-methoxyethoxy)phenyl]propyl {[(4-methylcyclohexyl)amino]sulfonyl}carbamate] | 121.5 to 121.8 | 3.1 | 54 | 50
COCCOc1ccc(CCCOC(=O)NS(=O)(=O)NCCc2cccs2)c(Oc2ncc(C(F)(F)F)cc2Cl)c1 [Example 207, 3-[2-{[3-chloro-5-(trifluoromethyl)pyridin-2-yl]oxy}-4-(2-methoxyethoxy)phenyl]propyl ({[2-(2-thienyl)ethyl]amino}sulfonyl)carbamate] | 117.5 to 118 | 0.99 | 54 | 43
COCCOc1ccc(CCCOC(=O)NS(=O)(=O)NCCc2ccccn2)c(Oc2ncc(C(F)(F)F)cc2Cl)c1 [Example 208, 3-[2-{[3-chloro-5-(trifluoromethyl)pyridin-2-yl]oxy}-4-(2-methoxyethoxy)phenyl]propyl {[(2-pyridin-2-ylethyl)amino]sulfonyl}carbamate] | 91 to 93 | 4 | 70 | 71
COCCOc1ccc(CCCOC(=O)NS(=O)(=O)NCCOC(C)C)c(Oc2ncc(Cl)cc2Cl)c1 [Example 429, 3-[2-[(3,5-dichloropyridin-2-yl)oxy]-4-(2-methoxyethoxy)phenyl]propyl {[(2-isopropoxyethyl)amino]sulfonyl}carbamate] | 87.5 to 88.4 | 3.8 | 51 | 60
COCCOc1ccc(/C=C/COC(=O)NS(=O)(=O)N2CCCC2)c(Oc2ncc(C(F)(F)F)cc2Cl)c1 [Example 437, (2E)-3-[2-{[3-chloro-5-(trifluoromethyl)pyridin-2-yl]oxy}-4-(2-methoxyethoxy)phenyl]prop-2-en-1-yl (pyrrolidin-1-ylsulfonyl)carbamate] | 123 to 124 | 54 | 45 | 58

Further lines, with some results ahead:

melting point [°C] | EC50 (PPARγ-RXRα heterodimer) [nM] | SMILES | response vs control in vivo at 0.01 % (KKAy mice; [1]) [%] | response vs control in vivo at 0.01 % (KKAy mice; [2]) [%]
83 to 85.5 | 7.8 | CCCCCS(=O)(=O)NC(=O)/C=C/c1ccc(OC(COCC)COCC)cc1Oc1ncc(C(F)(F)F)cc1Cl [Example 198, (2E)-3-{2-{[3-chloro-5-(trifluoromethyl)pyridin-2-yl]oxy}-4-[2-ethoxy-1-(ethoxymethyl)ethoxy]phenyl}-N-(pentylsulfonyl)acrylamide] | 62 | 84
68 to 69.2 | 0.95 | CCOCC(COCC)Oc1ccc(CCCOC(=O)NS(=O)(=O)NCCOC(C)C)c(Oc2ncc(C(F)(F)F)cc2Cl)c1 [Example 430, 3-{2-{[3-chloro-5-(trifluoromethyl)pyridin-2-yl]oxy}-4-[2-ethoxy-1-(ethoxymethyl)ethoxy]phenyl}propyl {[(2-isopropoxyethyl)amino]sulfonyl}carbamate] | 45 | 34

From patent publication US20100041892A1, “Therapeutic agent for diabetes” (priority 2005, published 2010)
